Values quoted from earlier work, collected in US9962342B1, “Pharmaceutical composition containing guaifenesin and application thereof” (Sunny Pharmtech Inc., priority 2017, dated 2018).

Details: in vivo

half-life: approximately 1 hour
Compound: COc1ccccc1OCC(O)CO (stereo not shown) [Guaifenesin]
